Assay results: patent US10377747B2, “2-arylamino pyridine, pyrimidine or triazine derivatives, preparation method and use thereof” (Wuxi Shuangliang Biotechnology Co., Ltd., priority 2015, dated 2019)
Where two headings read alike, the source gives them in different places.

Columns and labels:
[1] = system: H1975 (non-small-cell lung cancer cells. EGFR L858K/T790M); experiment: Tumor cell proliferation and growth inhibition analysis (Cell Titer-Glo, 72 h), H1975; assay type: cell-based; conditions: Homo sapiens
Text: (§1) […] cell proliferation assay is described as follows.
(§2) Tumor cell proliferation and growth inhibition analysis: H1975 (non-small-cell lung cancer cells. EGFR L858K/T790M) and A431 (human epidermal cancer cells, EGFR wild type) cells were commercially available from the ATCC cell bank. […] The growth medium for A431 cells was DMEM (GIBCO, 11995-065), 10% fetal bovine serum. The influence exerted by the compounds on the proliferation activity of tumor cells was detected by Cell Titer-Glo assay. Tumor cells were exposed to the treatment conditions for 72 h, and the cell density used in each experiment for each cell line was adjusted according to the 72 h cell growth curve. 10 concentration gradients and three-fold dilutions (0.5 nM-10 μM) were set for compounds to be tested, and 3 parallel controls were used for each concentration value.
(§3) Trypsin was used for digesting cells in the logrithmic growth phase to prepare cell suspension, which was counted by a Roche counter and appropriately diluted with complete medium to a final cell concentration of 1˜2×10^3 cell/mL. 384-well plates were seeded with cells, and 22.6 μL were seeded for each well. 3 parallels were set. The plates were incubated in an incubator with 5% CO2 at 37° C. overnight. The compounds were dissolved in DMSO to prepare […] mother liquor. […] 2 μL of compound solution was added into 18 μL of culture medium, and fully mixed. Then 2 μL of mixed solution of compound and culture medium was added into 18 μL of culture medium, and fully mixed. 2.4 μL of mixtures were added into a 384-well plates. […] After cultivation for 72 h, 24 μL of Cell Titer-Glo reagent was added. The contents were mixed on an orbital shaker for 2 min to induce cell lysis. The 384-well plates were incubated at room temperature for 10 min to stabilize the […] signal value. Data was read by Infinite® M1000 PRO (TECAN), and calculated with GraphPad Prism version 5.0. GI50 value was obtained by adjustment using a non-linear regression model of dose response curves.

[2] = system: A431 (human epidermal cancer cells, EGFR wild type); experiment: Tumor cell proliferation and growth inhibition analysis (Cell Titer-Glo, 72 h), A431; assay type: cell-based; conditions: A-431, 72 h exposure
Text: as §1, §2, §3

[3] = NCI-H1975, H1975 cells, 72 h exposure, Cell Titer-Glo, read-out: H1975 GI50

For `C=CC(=O)Nc1cc(Nc2nccc(-c3noc4ccccc34)n2)c(OC)cc1N1CCN(C)CC1` [Example 2, N-(5-((4-(benzo[d]isoxazol-3-yl)pyrimidin-2-yl)amino)-4-methoxy-2-(4-methylpiperazin-1-yl)phenyl)acrylamide], the GI50 [1, 3] was 168 nM and the GI50 [2] was 728 nM.
`C=CC(=O)Nc1cc(Nc2ncnc(-c3cccc4ccn(C)c34)n2)c(OC)cc1N(C)CCN(C)C` [Example 37, N-(2-((2-(dimethylamino)ethyl)(methyl)amino)-4-methoxy-5-((4-(1-methyl-1H-indol-7-yl)-1,3,5-triazin-2-yl)amino)phenyl)acrylamide] was tested, and the GI50 [1, 3] was 441 nM and the GI50 [2] was 1320 nM.
With `C=CC(=O)Nc1cc(Nc2nccc(-c3cn(C)c4cccnc34)n2)c(OC(F)F)cc1N1CCC[C@H]1CN(C)C` [Example 22, (S)—N-(4-(difluoromethoxy)-2-(2-((dimethylamino)methyl)pyrrolidin-1-yl)-5-((4-(1-methyl-1H-pyrrolo[3,2-b]pyridin-3-yl)pyrimidin-2-yl)amino)phenyl)acrylamide] the GI50 [1, 3] was 184 nM and the GI50 [2] was 724 nM.
With `C=CC(=O)Nc1cc(Nc2nccc(-c3cn(C)c4cccnc34)n2)c(OC)cc1N1CC2(CCCN2C)C1` [Example 17, N-(4-methoxy-5-((4-(1-methyl-1H-pyrrolo[3,2-b]pyridin-3-yl)pyrimidin-2-yl)amino)-2-(5-methyl-2,5-diazaspiro[3.4]oct-2-yl)phenyl)acrylamide] the GI50 [1, 3] was 39.8 nM and the GI50 [2] was 1300 nM.
In the case of `C=CC(=O)Nc1cc(Nc2nccc(-c3cn(C)c4ccccc34)n2)c(OC)cc1N(C)CCN(C)C` [AZD9291, reference compound], the GI50 ([1]; NCI-H1975, 72 h, read-out: H1975 GI50 (nM)) was 2.8 nM.
`C=CC(=O)Nc1cc(Nc2ncnc(-c3cccc4cc[nH]c34)n2)c(OC)cc1N1CC(N(C)C)C1` [Example 35, N—(5-((4-(1H-indol-7-yl)-1,3,5-triazin-2-yl)amino)-2-(3-(dimethylamino)azetidin-1-yl)-4-methoxyphenyl)acylamide] gave a GI50 [1, 3] of 1560 nM and a GI50 [2] of 3320 nM.
Work on `C=CC(=O)Nc1cc(Nc2nccc(-c3cn(C)c4cccnc34)n2)c(OC)cc1N1CCC[C@H]1CN(C)C` [Example 16] yielded a GI50 [1, 3] of 2880 nM and a GI50 [2] of 2100 nM.
`C=CC(=O)Nc1cc(Nc2nccc(-c3nn(C)c4ccsc34)n2)c(OC(F)F)cc1N(C)CCN(C)C` [Example 25] gave a GI50 [1, 3] of 6.5 nM and a GI50 [2] of 85.8 nM.
With `C=CC(=O)Nc1cc(Nc2ncnc(-c3cccc4cc[nH]c34)n2)c(OC)cc1N1CCN(C)CC1` [Example 34, N-(5-((4-(1H-indol-7-yl)-1,3,5-triazin-2-yl)amino)-4-methoxy-2-(4-methylpiperazin-1-yl)phenyl)acrylamide] the GI50 [1, 3] was 462 nM and the GI50 [2] was 2570 nM.
In the case of `C=CC(=O)Nc1cc(Nc2nccc(-c3cn(C)c4cccnc34)n2)c(OC(F)F)cc1N1CCN(C)CC1` [Example 19, N-(4-(difluoromethoxy)-5-((4-(1-methyl-1H-pyrrolo[3,2-b]pyridin-3-yl)pyrimidin-2-yl)amino)-2-(4-methylpiperazin-1-yl)phenyl)acrylamide], the GI50 [1, 3] was 166 nM and the GI50 [2] was 1440 nM.
`C=CC(=O)Nc1cc(Nc2ncnc(-c3cccc4cc[nH]c34)n2)c(OC)cc1N1CC2(CCCN2C)C1` [Example 36, N-(5-((4-(1H-indol-7-yl)-1,3,5-triazin-2-yl)amino)-4-methoxy-2-(5-methyl-2,5-diazaspiro[3.4]oct-2-yl)phenyl)acrylamide] was tested, and the GI50 [1, 3] was 114 nM and the GI50 [2] was 1120 nM.
Work on `C=CC(=O)Nc1cc(Nc2nccc(-c3nn(C)c4ccsc34)n2)c(OC(F)F)cc1N1CC(N(C)C)C1` [Example 27, N-(4-(difluoromethoxy)-2-(3-(dimethylamino)azetidin-1-yl)-5-((4-(1-methyl-1H-thieno[3,2-c]pyrazol-3-yl)pyrimidin-2-yl)amino)phenyl)acrylamide] yielded a GI50 [1, 3] of 1100 nM and a GI50 [2] of 2540 nM.
Work on `C=CC(=O)Nc1cc(Nc2nccc(-c3cn(C)c4cccnc34)n2)c(OC)cc1N(C)CCN(C)C` [Example 12, N-(2-((2-(dimethylamino)ethyl)(methyl)amino)-4-methoxy-5-((4-(1-methyl-1H-pyrrolo[3,2-b]pyridin-3-yl)pyrimidin-2-yl)amino)phenyl)acrylamide] yielded a GI50 [1, 3] of 6.8 nM and a GI50 [2] of 10200 nM.
Compound `C=CC(=O)Nc1cc(Nc2nccc(-c3cn(C)c4cc(C)sc34)n2)c(OC)cc1N(C)CCN(C)C` [Example 30] has a GI50 [1, 3] of 21.5 nM and a GI50 [2] of 943 nM.
`C=CC(=O)Nc1cc(Nc2cc(-c3nn(C)c4cccnc34)ccn2)c(OC)cc1N(C)CCN(C)C` [Example 42, N-(2-((2-(dimethylamino)ethyl)(methyl)amino)-4-methoxy-5-((4-(1-methyl-1H-pyrazolo[4,3-b]pyridin-3-yl)pyridin-2-yl)amino)phenyl)acrylamide] was tested, and the GI50 [1, 3] was 16.3 nM and the GI50 [2] was 264 nM.
With `C=CC(=O)Nc1cc(Nc2nccc(-c3nn(C)c4ccsc34)n2)c(OC(F)F)cc1N1CCC(N(C)C)CC1` [Example 28] the GI50 [1, 3] was 261 nM and the GI50 [2] was 5300 nM.
`C=CC(=O)Nc1cc(Nc2nccc(-c3noc4ccccc34)n2)c(OC)cc1N1CCC(N(C)C)CC1` [Example 3, N-(5-((4-(benzo[d]isoxazol-3-yl)pyrimidin-2-yl)amino)-2-(4-(dimethylamino)piperidin-1-yl)-4-methoxyphenyl)acrylamide] gave a GI50 [1, 3] of 82.4 nM and a GI50 [2] of 1240 nM.
Work on `C=CC(=O)Nc1cc(Nc2nccc(-c3noc4ccccc34)n2)c(OC(F)F)cc1N(C)CCN(C)C` [Example 6, N-(5-((4-(benzo[d]isoxazol-3-yl)pyrimidin-2-yl)amino)-4-(difluoromethoxy)-2-((2-(dimethylamino)ethyl)(methyl)amino)phenyl)acrylamide] yielded a GI50 [1, 3] of 4 nM and a GI50 [2] of 89.1 nM.
In the case of `C=CC(=O)Nc1cc(Nc2cc(-c3cn(C)c4ncccc34)ccn2)c(OC)cc1N(C)CCN(C)C` [Example 40, N-(2-((2-(dimethylamino)ethyl)(methyl)amino)-4-methoxy-5-((4-(1-methyl-1H-pyrrolo[2,3-b]pyridin-3-yl)pyridin-2-yl)amino)phenyl)acrylamide], the GI50 [1, 3] was 28.9 nM and the GI50 [2] was 198 nM.
`C=CC(=O)Nc1cc(Nc2ncnc(-c3cccc4cc[nH]c34)n2)c(OC(F)F)cc1N(C)CCN(C)C` [Example 33, N-(5-((4-(1H-indol-7-yl)-1,3,5-triazin-2-yl)amino)-4-(difluoromethoxy)-2-((2-(dimethylamino)ethyl)(methyl)amino)phenyl)acrylamide] showed a GI50 [1, 3] of 9.8 nM and a GI50 [2] of 100 nM.
Work on `C=CC(=O)Nc1cc(Nc2nccc(-c3cn(C)c4cccnc34)n2)c(OC)cc1N1CCC(N(C)C)CC1` [Example 15, N-(2-(4-(dimethylamino)piperidin-1-yl)-4-methoxy-5-((4-(1-methyl-1H-pyrrolo[3,2-b]pyridin-3-yl)pyrimidin-2-yl)amino)phenyl)acrylamide] yielded a GI50 [1, 3] of 77.5 nM and a GI50 [2] of 5370 nM.
Compound `C=CC(=O)Nc1cc(Nc2ncnc(-c3cn(C)c4ncccc34)n2)c(OC(F)F)cc1N(C)CCN(C)C` [Example 38, N-(4-(difluoromethoxy)-2-((2-(dimethylamino)ethyl)(methyl)amino)-5-((4-(1-methyl-1H-pyrrolo[2,3-b]pyridin-3-yl)-1,3,5-triazin-2-yl)amino)phenyl)acrylamide] has a GI50 [1, 3] of 8.3 nM and a GI50 [2] of 144 nM.
`C=CC(=O)Nc1cc(Nc2nccc(-c3noc4ccccc34)n2)c(OC(F)F)cc1N1CC2(CCCN2C)C1` [Example 11, N-(5-((4-(benzo[d]isoxazol-3-yl)pyrimidin-2-yl)amino)-4-(difluoromethoxy)-2-(5-methyl-2,5-diazaspiro[3.4]oct-2-yl)phenyl)acrylamide] was tested, and the GI50 [1, 3] was 36 nM and the GI50 [2] was 690 nM.
In the case of `C=CC(=O)Nc1cc(Nc2nccc(-c3cn(C)c4cccnc34)n2)c(OC)cc1N1CCN(C)CC1` [Example 13, N-(4-methoxy-5-((4-(1-methyl-H-pyrrolo[3,2-b]pyridin-3-yl)pyrimidin-2-yl)amino)-2-(4-methylpiperazin-1-yl)phenyl)acrylamide], the GI50 [1, 3] was 175 nM and the GI50 [2] was 1560 nM.
Work on `C=CC(=O)Nc1cc(Nc2nccc(-c3nn(C)c4ccsc34)n2)c(OC)cc1N(C)CCN(C)C` [Example 24, N-(2-((2-(dimethylamino)ethyl)(methyl)amino)-4-methoxy-5-((4-(1-methyl-1H-thieno[3,2-c]pyrazol-3-yl)pyrimidin-2-yl)amino)phenyl)acrylamide] yielded a GI50 [1, 3] of 10.7 nM and a GI50 [2] of 209 nM.
`C=CC(=O)Nc1cc(Nc2nccc(-c3noc4ccccc34)n2)c(OC(F)F)cc1N1CCN(C)CC1` [Example 7, N-(5-((4-(benzo[d]isoxazol-3-yl)pyrimidin-2-yl)amino)-4-(difluoromethoxy)-2-(4-methylpiperazin-1-yl)phenyl)acrylamide] showed a GI50 [1, 3] of 49 nM and a GI50 [2] of roughly 1720 nM.
`C=CC(=O)Nc1cc(Nc2nccc(-c3noc4ccccc34)n2)c(OC(F)F)cc1N1CCC[C@H]1CN(C)C` [Example 10] was tested, and the GI50 [1, 3] was 285 nM and the GI50 [2] was greater than 1000 nM.
